Experimental data reported in patent US20260365684A1, “PHYTOSPHINGOSINE-3,4-CYCLICPHOSPHATE COMPOUND AND PHARMACEUTICAL COMPOSITION COMPRISING THE SAME” (AXCESO BIOPHARMA CO., LTD., priority 2022, published 2026).

Tests used:
[1] = test system: tyrosine hydroxylase (TH); assay: Tyrosine hydroxylase expression in differentiated SH-SY5Y dopaminergic neurons by western blot; assay type: cell-based, human; settings: FIG. 6
Method: (§1) To analyze the effect on the expression of tyrosine hydroxylase (TH) and α-synuclein as neuron-specific proteins, western blot was performed.
(§2) SH-SY5Y cell line was treated with retinoic acid and 12-O-tetradecanoylphorbol-13-acetate (TPA) to induce differentiation into TH-secreting neurons for 6 days.
(§3) Differentiated dopaminergic neurons were lysed in PRO-PREP (Intronbio), a cell lysis solution containing protease inhibitor cocktail (Gendepot), and electrophoresed in 10% SDS polyacrylamide gels at 20 μg/well. Transfer was performed using PVDF (Merck millipore) as a membrane, and tyrosine hydroxylase antibody, «-synuclein antibody (Cell signaling), and β-actin antibody (Santa Cruz) were used for reaction for more than 2 hours. Protein expression was detected by staining with ECL substrate (Biorad) for development and graphed using the image J program.

[2] = test system: pluripotent stem cells; assay: Differentiation of pluripotent stem cells into dopaminergic neurons; assay type: cell-based; settings: FIG. 5
Method: (§4) Pluripotent stem cells were seeded in Aggre Well plates (stemcell) at 5,000 cells/microwell and cultured for 5 days in E6 medium (GIBCO) to induce embryonic body (EB) formation. For neural rosette formation, EBs were seeded into 35 mm dishes in groups of 30 and cultured for 10 days in N2bF medium. The 35 mm dishes were used after being coated with 15 μg/ml of poly-L-ornithine (sigma) and 1 μg/ml of fibronectin (sigma). The N2Bf medium composition was DMEM/F12 (GIBCO), N2 supplement (stemcell) 1×, 10% NEAA (GIBCO), 55 µM beta-Mercaptoethanol (GIBCO), bFGF (peprotech) 20 ng/ml. For the formation of spherical neural masses (SNMs), rosette masses were sliced and cultured in petri dishes with N2bF medium. SNMs were no larger than 500 UM in size and were sliced and cultured for 3 to 4 passages. After subculture of SNM, the clumps were broken into small pieces using a tungsten mesh (Nilaco) for the neural progenitor cell (NPC) culture step, and then attached to a PLO/FN-coated dish and cultured in N2bF medium. […]
(§5) The effect of the compound of formula (1a-1) on differentiation into neurons was evaluated by comparing the expression of tyrosine hydroxylase (TH) and dopamine transporter (DAT) depending on the presence or absence of treatment with the compound of formula (1a-1).

[3] = test system: dopamine transporter (DAT); assay: Differentiation of pluripotent stem cells into dopaminergic neurons: dopamine transporter; assay type: cell-based; settings: 5-week differentiation sample, FIG. 5B
Method: as §4, §5

[4] = test system: APP/PS/Tau transgenic mice; assay: Intestinal length in an AD-induced animal model (APP/PS/Tau transgenic mice); assay type: in vivo, mouse; settings: 1 mg/kg i.p. once every 3 days for 2 weeks, FIG. 2
Method: In neurodegenerative diseases (AD and PD), the length of the intestine tends to decrease as the disease progresses, so we looked for changes in intestinal length in an AD-induced animal model.
APP/PS/Tau transgenic mice were used as an AD-induced animal model. The compound of formula (1a-1) was administered intraperitoneally once every 3 days at a concentration of 1 mg/kg to 12-week-old transgenic mice for 2 weeks, and the changes in intestinal length of the mice were measured after 1 and 4 weeks.

[5] = test system: tyrosine hydroxylase (TH); assay: Differentiation of pluripotent stem cells into dopaminergic neurons: tyrosine hydroxylase expression; assay type: cell-based
Method: Pluripotent stem cells were seeded in Aggre Well plates (stemcell) at 5,000 cells/microwell and cultured for 5 days in E6 medium (GIBCO) to induce embryonic body (EB) formation. For neural rosette formation, EBs were seeded into 35 mm dishes in groups of 30 and cultured for 10 days in N2bF medium. The 35 mm dishes were used after being coated with 15 μg/ml of poly-L-ornithine (sigma) and 1 μg/ml of fibronectin (sigma). The N2Bf medium composition was DMEM/F12 (GIBCO), N2 supplement (stemcell) 1×, 10% NEAA (GIBCO), 55 µM beta-Mercaptoethanol (GIBCO), bFGF (peprotech) 20 ng/ml. For the formation of spherical neural masses (SNMs), rosette masses were sliced and cultured in petri dishes with N2bF medium. SNMs were no larger than 500 UM in size and were sliced and cultured for 3 to 4 passages. After subculture of SNM, the clumps were broken into small pieces using a tungsten mesh (Nilaco) for the neural progenitor cell (NPC) culture step, and then attached to a PLO/FN-coated dish and cultured in N2bF medium. To differentiate NPCs into dopaminergic neurons, the medium was replaced with an ITS-B27 medium after 2 days of NPC culture. The ITS-B27 medium composition was DMEM/F12 (GIBCO), D-(+)-glucose (sigma) 1.5 mg/ml, insulin (wako) 5 μg/ml, transferrin (wako) 50 μg/ml, selenite (sigma) 30 nM, GlutaMAX (GIBCO) 2.5%, and B27 (GIBCO) 1×. After 4 days of NPC culture, 200 ng/ml of Sonic Hedgehog and 100 ng/ml of FGF8 (peprotech) were added to the ITS-B27 medium. After 6 days of NPC culture, 200 ng/ml of Sonic Hedgehog, 20 ng/ml of GDNF, 20 ng/ml of BDNF (peprotech), 200 µM of ascorbic acid, and 500 μM of cAMP (sigma) were added to the ITS-B27 medium and cultured for approximately 5 weeks. The compound of formula (1a-1) was treated starting from the stage 2 days after NPC culture. […]
as §5

[6] = test system: Tau protein; assay: Expression of Tau in brain of AD-induced animal model by fluorescence microscopy; assay type: in vivo; settings: mouse brain, 1 mg/kg i.p. once every 3 days for 2 weeks, FIG. 3
Method: To determine the therapeutic effect on Alzheimer's Disease (AD), the effects on amyloid beta monomer (monomeric Aβ, mAβ) and Tau protein, which are biomarkers of AD, were analyzed in an AD-induced animal model.
APP/PS/Tau transgenic mice were used as an AD-induced animal model. The compound of formula (1a-1) was administered intraperitoneally once every 3 days at a concentration of 1 mg/kg to 12-week-old transgenic mice for 2 weeks, and the expression of mAβ and Tau proteins in the mouse brain was measured after 1 and 4 weeks. After anesthetizing the mouse, the cervical region was incised with a dissecting tool, and then the occipital region was incised to remove both sides of the skull. The brain was washed with phosphate buffered saline (PBS) and fixed with 4% paraformaldehyde (Sigma, St Louis, MO, USA) for 12 hours at 4 °C. These were cut to a thickness of approximately 10 μm using a vibratome, and hippocampus and cortex sections were collected and placed in 24 wells. PBS was added to the wells containing the fixed tissue sections, and fluorescent nanoparticles (QD565, red fluorescence) conjugated with anti-amyloid antibodies and anti-Tau antibodies (Santa Cruz, USA) were added to each 2 μM, and reacted at 4 °C for 12 hours. The expression of mAβ and Tau was confirmed by fluorescence microscopy.

[7] = test system: α-synuclein; assay: α-synuclein expression in differentiated SH-SY5Y dopaminergic neurons by western blot; assay type: cell-based, human; settings: FIG. 6
Method: as §1, §2, §3

[8] = test system: IL-6; assay: IL-6 in serum after CLP treatment by ELISA; assay type: in vivo, mouse; settings: serum at 18 hours, treated at 6 and 16 hours after CLP; FIG. 10
Method: (§6) After CLP treatment, the inflammatory cytokines TNF-α and IL-6 were analyzed by ELISA.
(§7) Specifically, after treating the compound of formula (1a-1) at 6 and 16 hours after CLP treatment, mouse blood was collected at 18 hours and allowed to stand at room temperature for 1 hour, then centrifuged at 3000 rpm for 10 minutes to obtain serum to analyze the amount of TNF-α and IL-6.

[9] = test system: SIRT1; assay: SIRT1 expression in mouse vascular cells; assay type: cell-based
[10] = test system: TNF-α; assay: TNF-α in serum after CLP treatment by ELISA; assay type: in vivo, mouse; settings: serum at 18 hours, treated at 6 and 16 hours after CLP; FIG. 10
Method: as §6, §7

[11] = differentiated dopaminergic neurons treated with rotenone (RT)
[12] = rotenone-treated differentiated dopaminergic neurons

With CCCCCCCCCCCCCC[C@H]1OP(=O)(O)O[C@H]1[C@@H](N)CO.Cl [formula (1a-1), (4S,5R)-4-((S)-1-amino-2-hydroxyethyl)-2-hydroxy-5-tetradecyl-1,3,2-dioxaphosphoran-2-oxide hydrochloride] the “expression of TH” value [1, 11] was “the expression of TH decreased by rotenone was restored”, the “effectiveness relative to resveratrol (control drug), TH expression” value [1, 12] was “more effective than resveratrol” and the “differentiation of pluripotent stem cells into dopaminergic neurons” value [2] was “can promote the differentiation of pluripotent stem cells into dopaminergic neurons”. For the same compound, the “DAT glycosylation (western blot)” value [3] was “DAT glycosylation is increased”, the “intestinal length at 4 weeks (6W) vs 1 week (3W) after administration” value [4] was “the length of the intestine at 4 weeks is longer compared to the length of the intestine at 1 week” and the “intestinal length vs control group” value ([4]; untreated AD-induced mice as control) was “the intestinal length is increased”. For the same compound, the “TH expression (western blot)” value ([5]; 5-week differentiation sample, FIG. 5B) was “TH expression is increased”, the “expression of TH (cell fluorescence immunostaining)” value ([5]; FIG. 5A) was “the expression of TH increased” and the “time at which TH expression was elevated” value ([5]; FIG. 5A, TH expression otherwise increases after more than 5 weeks of differentiation) was ≤ 3 weeks. For the same compound, the “red fluorescence for Tau” value ([6]; 1 week and 4 weeks after) was “negligible red fluorescence for mAβ and Tau”, the “expression of Tau protein” value [6] was “significantly reduced” and the “expression of α-synuclein” value [7, 11] was “the expression of α-synuclein increased by rotenone was decreased”. The “effectiveness relative to resveratrol (control drug), α-synuclein expression” value [7, 12] was “more effective than resveratrol”, the “amount of IL-6” value [8] was “significantly decreased” and the “concentration of maximum SIRT1 expression” value [9] was 100 ng/mL. The “amount of TNF-α” value [10] was “significantly decreased”.
